Reference: ChEMBL document CHEMBL1155191, “Simple dihydrosphyngosine analogues with potent activity against MDR-Mycobacterium tuberculosis” (2009)
Values after ≈ are worked out from the molar mass of the structure shown.

Tests used:
Type in all cases: functional
[1] = tested on: Mycobacterium tuberculosis; assay: Antimycobacterial activity against multidrug-resistant Mycobacterium tuberculosis 160 after 5 to 7 days by microplate alamar blue assay
[2] = tested on: Mycobacterium tuberculosis; assay: Antimycobacterial activity against multidrug-resistant Mycobacterium tuberculosis 528 after 5 to 7 days by microplate alamar blue assay
[3] = tested on: Mycobacterium tuberculosis; assay: Antimycobacterial activity against multidrug-resistant, ethambutol-sensitive Mycobacterium tuberculosis 494 after 5 to 7 days by microplate alamar blue assay
[4] = tested on: Mycobacterium tuberculosis; assay: Antimycobacterial activity against streptomycin, rifampicin, pyrazinamide-sensitive isoniazid, ethambutol-resistant Mycobacterium tuberculosis 363 after 5 to 7 days by microplate alamar blue assay
[5] = tested on: Mycobacterium tuberculosis; assay: Antimycobacterial activity against multidrug-resistant Mycobacterium tuberculosis 411 after 5 to 7 days by microplate alamar blue assay
[6] = tested on: Mycobacterium tuberculosis; assay: Antimycobacterial activity against multidrug-resistant, ethambutol-sensitive Mycobacterium tuberculosis 401 after 5 to 7 days by microplate alamar blue assay
[7] = tested on: Mycobacterium tuberculosis; assay: Antimycobacterial activity against multidrug-resistant, pyrazinamide-sensitive Mycobacterium tuberculosis 366 after 5 to 7 days by microplate alamar blue assay
[8] = tested on: Mycobacterium tuberculosis; assay: Antimycobacterial activity against multidrug-resistant Mycobacterium tuberculosis 535 after 5 to 7 days by microplate alamar blue assay
[9] = tested on: Mycobacterium tuberculosis; assay: Antimycobacterial activity against multidrug-resistant Mycobacterium tuberculosis 331 after 5 to 7 days by microplate alamar blue assay
[10] = tested on: Mycobacterium tuberculosis; assay: Antimycobacterial activity against multidrug-resistant, streptomycin-sensitive Mycobacterium tuberculosis 429 after 5 to 7 days by microplate alamar blue assay
[11] = tested on: Mycobacterium tuberculosis; assay: Antimycobacterial activity against multidrug-resistant Mycobacterium tuberculosis 332 after 5 to 7 days by microplate alamar blue assay

| Compound | MIC [1] [µM] | MIC [2] [µM] | MIC [3] [µM] | MIC [4] [µM] | MIC [5] [µM] | MIC [6] [µM] | MIC [7] [µM] | MIC [8] [µM] | MIC [9] [µM] | MIC [10] [µM] | MIC [11] [µM] |
| --- | --- | --- | --- | --- | --- | --- | --- | --- | --- | --- | --- |
| CCCCCCCCCCCCCCC(N)COCc1ccccc1 (stereo not drawn) | 9 (≈ 3.13 µg/mL) | 18 (≈ 6.26 µg/mL) | 9 (≈ 3.13 µg/mL) | 18 (≈ 6.26 µg/mL) | 4.5 (≈ 1.56 µg/mL) | 4.5 (≈ 1.56 µg/mL) | 4.5 (≈ 1.56 µg/mL) | 18 (≈ 6.26 µg/mL) | 9 (≈ 3.13 µg/mL) | 9 (≈ 3.13 µg/mL) | 36 (≈ 12.5 µg/mL) |
| CCCCCCCCCCCCCCC(COCc1ccccc1)N(CC)CC (stereo not drawn) | 7.7 (≈ 3.11 µg/mL) | 15.5 (≈ 6.26 µg/mL) | 7.7 (≈ 3.11 µg/mL) | 3.9 (≈ 1.57 µg/mL) | 7.7 (≈ 3.11 µg/mL) | 7.7 (≈ 3.11 µg/mL) | 3.9 (≈ 1.57 µg/mL) | 3.9 (≈ 1.57 µg/mL) | 15.5 (≈ 6.26 µg/mL) | 7.7 (≈ 3.11 µg/mL) | 1.9 (≈ 0.767 µg/mL) |
| CCCCCCCCCCCCCCC(N)CN(CC)CC (stereo not drawn) | 40 (≈ 12.5 µg/mL) | 40 (≈ 12.5 µg/mL) | 40 (≈ 12.5 µg/mL) | 40 (≈ 12.5 µg/mL) | 40 (≈ 12.5 µg/mL) | 40 (≈ 12.5 µg/mL) | 20 (≈ 6.25 µg/mL) | 40 (≈ 12.5 µg/mL) | 40 (≈ 12.5 µg/mL) | 40 (≈ 12.5 µg/mL) | 40 (≈ 12.5 µg/mL) |
